Laboratory results reported in US8846951B2 (AbbVie Inc., priority 2009, dated 2014).
Like-named read-outs stand apart in the source and are kept apart here.

Experiments:
[1] = biological target: T1, 5HT2B receptors (Homo sapiens, UniProt P41595); assay: Human 5-HT2B functional high throughput screening assay in CHO-K1 cells (calcium flux); format: cell-based; conditions: for EC50: CHO-K1 cells, calcium flux
T1 construct: expressed in transfected cells; host or cells: CHO-K1 cells
Procedure: (§1) (iii) Human 5-HT2C and 5-HT2B Functional High Throughput Screening Assays in CHO-K1 Cells
(§2) CHO-K1 cells over-expressing 5HT2C or 5HT2B receptors were grown in 1272 cm^2 flasks to 70-80% confluency in UltraCHO media (Lonza, Walkersville, Md.) supplemented with 1% dialyzed fetal bovine serum (FBS), 250 μg/mL zeocin, 100 U/mL penicillin and 100 μg/mL streptomycin, and 400 μg/mL geneticin. The cells were dissociated from the flasks using 0.05% trypsin, resuspended in Recovery™ cell culture freezing medium (Invitrogen, Carlsbad, Calif.) and stored in liquid nitrogen until use. The calcium flux experiments were done using frozen cells. The cells were diluted in media containing 1% dialyzed FBS and 100 U/mL penicillin and 100 μg/mL streptomycin and plated into 384-well poly-D-Lysine coated plates (15,000 cells/well). Then the plates were incubated overnight in a cell incubator at 37° C., 5% CO2. On the next day, the growth media was replaced with media without FBS and further incubated overnight. On day three, the changes in intracellular Ca^2+ were determined using calcium sensitive fluorescent dye, Ca4 (MDS Analytical Technologies, Sunnyvale, Calif.) by loading 15 μL of diluted dye in Hank's Balanced Salt Solution and 20 mM Hepes buffer (pH 7.4) with final concentration of 2.5 mM probenecid into the cells containing media. Then the cells were incubated at room temperature for 60 minutes in dark.
(§3) After incubation, the cell plates were transferred to FLIPR™ (MDS) and their fluorescence measurements were read at an excitation wavelength of 480 nm and an emission wavelength of 530 nm at 25° C. The baseline fluorescence was measured for the first 10 seconds and then 15 μL of 4× concentration of serotonin/test compound was added to the cells. The fluorescence intensity was captured every second for the first 1 minute followed by every 5 seconds for an additional 2 minutes. The increase in fluorescent response by a test compound was normalized to the response of serotonin and used to determine agonist activity. The concentration response of compounds was done from a starting concentration of 10 μM, 1:10 dilution across 6 wells with a final dimethyl sulfoxide concentration of 0.2% and was fitted using a 4-parameter logistic equation. The concentration at which a compound exerts half its maximal effect was named as ‘effective concentration 50’ or ‘EC50’. Emax is the maximum functional response or efficacy expressed as a percentage relative to the effect of serotonin.

[2] = biological target: T2, 5HT2C receptors (Homo sapiens, UniProt P28335); assay: Human 5-HT2C functional high throughput screening assay in CHO-K1 cells (calcium flux); format: cell-based; set-up: expressed in transfected cells; host or cells: CHO-K1 cells; conditions: for Emax: CHO-K1, 5-HT2C, maximum functional response as percentage relative to the effect of serotonin; for EC50: CHO-K1 cells, calcium flux
T2 sequence (P28335 33-458): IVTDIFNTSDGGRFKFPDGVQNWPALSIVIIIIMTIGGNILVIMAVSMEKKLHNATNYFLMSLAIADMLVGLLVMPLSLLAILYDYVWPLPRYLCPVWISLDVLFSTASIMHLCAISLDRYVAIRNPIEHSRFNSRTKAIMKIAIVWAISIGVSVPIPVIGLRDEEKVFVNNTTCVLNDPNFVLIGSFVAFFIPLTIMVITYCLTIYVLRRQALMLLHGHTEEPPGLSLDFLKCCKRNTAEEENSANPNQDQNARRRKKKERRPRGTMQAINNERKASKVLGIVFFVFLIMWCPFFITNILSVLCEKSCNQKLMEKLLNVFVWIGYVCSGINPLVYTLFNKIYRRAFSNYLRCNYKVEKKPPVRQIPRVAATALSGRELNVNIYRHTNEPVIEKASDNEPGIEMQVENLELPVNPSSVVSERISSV
Procedure: as §1, §2, §3

[3] = 5-HT2B, maximum functional response as percentage relative to the effect of serotonin
[4] = 5-HT2B agonist activity, read-out: EC50
[5] = 5-HT2C agonist activity, read-out: EC50

T1 sequence (P41595 whole entry): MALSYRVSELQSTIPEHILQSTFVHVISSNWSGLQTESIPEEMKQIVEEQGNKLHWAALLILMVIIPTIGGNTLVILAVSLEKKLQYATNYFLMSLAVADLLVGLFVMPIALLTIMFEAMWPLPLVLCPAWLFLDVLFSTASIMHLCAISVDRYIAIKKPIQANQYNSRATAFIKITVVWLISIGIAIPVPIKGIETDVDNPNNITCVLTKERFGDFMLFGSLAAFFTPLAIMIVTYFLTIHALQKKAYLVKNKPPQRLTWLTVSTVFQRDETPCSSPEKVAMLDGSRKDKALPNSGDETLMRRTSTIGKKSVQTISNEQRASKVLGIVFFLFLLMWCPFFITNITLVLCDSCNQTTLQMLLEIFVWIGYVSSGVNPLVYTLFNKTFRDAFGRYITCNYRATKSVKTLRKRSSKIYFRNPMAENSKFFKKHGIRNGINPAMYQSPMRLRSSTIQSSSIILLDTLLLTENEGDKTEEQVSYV

Emax ([2]; read-out: Emax) [%]	SMILES	Emax ([1]; CHO-K1) [%]	EC50 ([1]; EC50, 5-HT2B agonist activity) [nM]	Emax [2] [%]	EC50 ([2]; EC50, 5-HT2C agonist activity) [nM]	Emax [1, 3]	EC50 [1, 4] [nM]	EC50 [2, 5] [nM]
–	Cc1cccc(S(=O)(=O)N2Cc3cccnc3[C@@H]3CNC[C@H]3C2)c1 (relative stereo) [Example 348, Trans-6-[(3-methylphenyl)sulfonyl]-5,6,7,7a,8,9,10,10a-octahydropyrido[3,2-c]pyrrolo[3,4-e]azepine]	50	800	85	70	–	–	–
–	O=S(=O)(c1ccc(Cl)cc1)N1Cc2cccnc2[C@@H]2CNC[C@H]2C1 (relative stereo) [Example 340, Trans-6-[(4-chlorophenyl)sulfonyl]-5,6,7,7a,8,9,10,10a-octahydropyrido[3,2-c]pyrrolo[3,4-e]azepine]	–	> 10000	90	70	inactive	–	–
60	O=C1Cc2ccccc2[C@@H]2CN(Cc3ccccc3)C[C@H]2N1 (relative stereo) [Example 223, Trans-2-benzyl-1,2,3,3a,4,10b-hexahydrobenzo[d]pyrrolo[3,4-b]azepin-5(6H)-one]	–	–	–	–	inactive	> 10000	5000
–	CN1C[C@H]2CNC(=O)c3cc(C4CCCC4)ccc3[C@@H]2C1 (relative stereo) [Example 205, Trans-8-cyclopentyl-2-methyl-1,2,3,3a,4,5-hexahydrobenzo[e]pyrrolo[3,4-c]azepin-6(10bH)-one]	–	–	90	–	inactive	> 10000	300
90	CNC(=O)c1ccc2c(c1)C(=O)NC[C@@H]1CN(C)C[C@@H]21 (relative stereo) [Example 125, Trans-N,2-dimethyl-6-oxo-1,2,3,3a,4,5,6,10b-octahydrobenzo[e]pyrrolo[3,4-c]azepine-8-carboxamide]	–	–	–	–	inactive	> 10000	2000
> 120	O=C1NC[C@@H]2CNC[C@H]2c2ccc(OCc3c(F)cccc3F)cc21 (relative stereo) [Example 168, Trans-8-(2,6-difluorobenzyloxy)-1,2,3,3a,4,5-hexahydrobenzo[e]pyrrolo[3,4-c]azepin-6(10bH)-one]	–	–	–	–	inactive	> 10000	1
–	CC(C)COc1ccc2c(c1)C(=O)NC[C@H]1CNC[C@H]21 [Example 308, (3aR-10bS)-8-Isobutoxy-2,3,3a,4,5,10b-hexahydropyrrolo[3,4-d][2]benzazepin-6(1H)-one]	–	> 10000	95	3	inactive	–	–
–	c1ccc(CN2C[C@H]3CCOc4ncccc4[C@@H]3C2)cc1 (relative stereo) [Example 262, Trans-2-benzyl-2,3,3a,4,5,10b-hexahydro-1H-pyrrolo[3′,4′:4,5]oxepino[2,3-b]pyridine]	–	–	90	–	inactive	> 10000	2000
–	CN1C[C@@H]2CNC(=O)c3cc(F)cc(F)c3[C@H]2C1 [Example 162, (3aS,10bS)-8,10-Difluoro-2-methyl-1,2,3,3a,4,5-hexahydrobenzo[e]pyrrolo[3,4-c]azepin-6(10bH)-one]	40	100	> 120	8	–	–	–
–	c1ccc(CN2CC[C@@H]3CNC[C@H]3c3ccccc32)cc1 (relative stereo) [Example 329, Trans-6-benzyl-1,2,3,3a,4,5,6,10b-octahydropyrrolo[3,4-d][1]benzazepine]	15	–	70	–	–	2000	1000
–	COc1cccc2c1OCC[C@H]1CNC[C@H]21 (relative stereo) [Example 372, Trans-7-methoxy-2,3,3a,4,5,10b-hexahydro-1H-[1]benzoxepino[4,5-c]pyrrole]	25	–	70	–	–	200	1000
